Values quoted from earlier work, collected in patent US6183777A (priority 1997, dated 2001).

Key:
[1] = in vivo
cerebral acetyl choline = conditions: in particular in the cerebral cortex
[2] = tested on: Alzheimer's Disease patients; conditions: mild to medium AD

Cl.Nc1c2c(nc3ccccc13)CCCC2 [Tacrine, 1,2,3,4-tetrahydro-9-acridinamine hydrochloride]
adverse effects [1]: gastro-intestinal side effects, such as nausea, vomiting, diarrhea, dyspepsia and loss of appetite; kinetic ataxia of voluntary muscles and myalgia; sweating and bradycardia induced by overexcitement of vagus nerues | hepatoxicity [1]: may cause reversible hepatoxicity | cerebral acetyl choline concentration (cerebral acetyl choline): may increase cerebral acetyl choline concentration | memory and recognition of patients [2]: can significantly improve the memory and recognition of patients | oral bioavailability, variation between individuals: may significantly vary in different individuals
